Laboratory results from patent US7449195B2 (priority 2001, dated 2008).
Where two headings read alike, the source gives them in different places.

Test system: Phytophthora infestans
Format: in vivo
Conditions: individual active compound, tomato leaves, protective, evaluated after 6 days

Compound	Efficacy in % of the untreated control (0.05 ppm in the spray liquor) [%]	Efficacy in % of the untreated control (0.1 ppm in the spray liquor) [%]	Efficacy in % of the untreated control (0.2 ppm in the spray liquor) [%]
Cc1ccc(-c2c(Cl)nc(C#N)n2S(=O)(=O)N(C)C)cc1 [Ia, cyazofamid]	53	70	82
Cc1ccc(C(C)NC(=O)[C@@H](NC(=O)OC(C)C)C(C)C)cc1 (stereo partly drawn) [II-3, iprovalicarb]	29	53	70
